# Measurements taken from patent US7582428B2, “Methods and compositions for identifying anti-HCV agents” (priority 2003, dated 2009).
# How the values were obtained:
# NS4B-GFP = NS4B-GFP (Hepatitis C virus genotype 1b, UniProt Q9WMX2); assay type: binding, HCV
# GST-NS4B = molecular target: T1, GST-NS4B (Hepatitis C virus genotype 1b, UniProt Q9WMX2); assay: RNA binding assay; set-up: species or system HCV; details: 5 mM nucleotide; compared with GTP-γ-S
# T1 construct: wild type NS4B and the four NBM mutants were fused in frame with N-terminal Glutathione-S Transferase (GST) tags and assayed; made in house; host or cells: E. coli BL21 (pDEST15)
# T1 sequence (Q9WMX2 1712-1972 limits assumed): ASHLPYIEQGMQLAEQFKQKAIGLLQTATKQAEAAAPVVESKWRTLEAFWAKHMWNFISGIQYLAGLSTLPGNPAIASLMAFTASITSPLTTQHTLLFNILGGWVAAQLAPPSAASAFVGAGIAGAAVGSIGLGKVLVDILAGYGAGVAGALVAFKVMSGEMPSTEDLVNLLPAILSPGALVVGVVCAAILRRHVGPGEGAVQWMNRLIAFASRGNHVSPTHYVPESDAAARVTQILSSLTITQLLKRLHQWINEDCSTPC
# Protocol: RNA binding assay. 1 μg of purified protein was incubated for an hour at 37° C. in a 50 μl reaction mixture containing ^32P-labeled in vitro transcribed HCV RNA (prepared by using Sca I-linearized Bart79I plasmid (wild type HCV replicon (3)) as template, T7 RNA polymerase, and Riboprobe®/Promega, according to the manufacturer's protocol), binding buffer (10 mM DTT, 10 mM Na HEPES (pH 7.4), 33 mM NaCl, 0.1 mM EDTA, 10 mM MgCl2) and 5 mM of either GTP-γ-S or GDP (Sigma). 50 μl of tRNA pre-coated glutathione-agarose beads (Sigma) were then added, followed by 1 hour incubation at 4° C. to allow binding of GST to the beads. Samples were then washed three times in the binding buffer (in the absence of nucleotides). Aliquots were finally subjected to liquid scintillation counting for measuring bound RNA. Control incubations performed with reaction mixture prepared as above but with omission of T7 RNA polymerase were run in parallel and used for background subtraction.
Structure (SMILES),labeling of NS4B-GFP by 32P-labeled photoactivatable nucleotide (NS4B-GFP),other results
"[N-]=[N+]=Nc1ccc(NP(=O)(O)OP(=O)(O)OP(=O)(O)OC[C@H]2O[C@@H](n3cnc4c(=O)[nH]c(N)nc43)[C@H](O)[C@@H]2O)cc1 [GTP, GTP-γ-4-azidoanilide]",specifically labeled,–
"[N-]=[N+]=Nc1ccc(NP(=O)(O)OP(=O)(O)OP(=O)(O)OC[C@H]2O[C@@H](n3cnc4c(N)ncnc43)[C@H](O)[C@@H]2O)cc1 [ATP, ATP-γ4-azidoanilide]",significantly less efficient than GTP binding,–
Nc1nc2c(ncn2[C@@H]2O[C@H](COP(=O)(O)OP(=O)(O)OP(O)(O)=S)[C@@H](O)[C@H]2O)c(=O)[nH]1 [GTPγS],–,binding of labeled GTP in the presence of cold competitor nucleotide (NS4B-GFP): progressively decreased
Nc1nc2c(ncn2[C@@H]2O[C@H](COP(=O)(O)OP(=O)(O)O)[C@@H](O)[C@H]2O)c(=O)[nH]1 [GDP],–,HCV RNA binding of GST-NS4B in the presence of guanyl nucleotide (GST-NS4B): dramatically increased
